Measured values: patent US9944721B2, “Polysialic acid and use for treatment of neurodegenerative and neuroinflammatory diseases” (RHEINISCHE FRIEDRICH-WILHELMS UNIVERSITÄT BONN, priority 2013, dated 2018)

What was measured:
Format in all cases: cell-based
[1] = test system: human microglial line derived from induced pluripotent stem cells (expressing Siglec-11); assay: MTT cell viability of human microglia treated with sialic acid forms
Protocol: A human microglial line derived from induced pluripotent stem cells as described in WO 2010/125110 was used to study the effect of sialic acid forms with different chain length. Human microglial cells were cultured on 5 μg/ml poly-L-lysin (PLL, Sigma)-coated dishes in N2-medium containing DMEM/F12 culture medium (Gibco) supplemented with 1% N2 (Invitrogen), 0.48 mM L-glutamine (Gibco) and optionally 100 μg/ml penicillin/streptomycin (Gibco). Cells were cultured with high density and splitted 1:2 when required.
The effect of different length and fractions of oligosialic acids and polysialic acids on the human microglial lines were analyzed by determination of cell viability normalized to the cell number and after treatment with monomeric sialic acid (SA, molecular weight of 0.3 kDa, Nacalai Tesque ING, Japan) and sialic acids consisting of 3 monomers (Tri-SA; molecular weight of 0.9 kDa, Nacalai Tesque ING, Japan) and sialic acids consisting of 6 monomers (Hexa-SA; molecular weight of 1.9 kDa, Nacalai Tesque ING, Japan), PSA with a number of sialic acid monomers between 14 and 26 (PSA-20; low molecular weight of PSA between 4.3 and 8 kDa for >90% of the substance) and PSA with a length between 46 and 110 of sialic acid monomers (PSA-60; medium molecular weight of PSA between 14.2 and 34 kDa for >90% of the substance).
The microglial cells were cultured in medium as described above and treated in culture with the different sialic acid forms.
Cell viability was determined by the MTT (3-(4,5-Dimethylthiazol-2-yl)-2,5-diphenyltetrazolium bromide, Millipore) assay after 24 hours treatment with distinct sialic acid forms with different chain length and normalized to the cell number. The light absorbance of the purple formazan in living cells was determined by a spectrophotometer at a wavelength of 570 nm (Perkin Elmer, Envision Multiplate Reader).

[2] = test system: LPS-activated human microglia; assay: LPS-induced TNF-alpha gene transcription in human microglia (qRT-PCR); conditions: LPS 1 μg/ml, 24 hours
Protocol: To analyse whether polysialic acid might interfere with a pro-inflammatory phenotype of human microglia, cultured human microglia were activated with lipopolysaccharides (LPS) and the effect of the distinct sialic acid forms including fractions of oligosialic and polysialic acid on the gene transcription of the pro-inflammatory cytokine tumor necrosis factor-alpha induced by the bacterial toxin LPS was determined. A human microglial line derived from induced pluripotent stem cells as described in WO 2010/125110 was used to study the effect of sialic acid forms with different chain length. Human microglial cells were cultured on 5 μg/ml poly-L-lysin (PLL, Sigma)-coated dishes in N2-medium containing DMEM/F12 culture medium (Gibco) supplemented with 1% N2 (Invitrogen), 0.48 mM L-glutamine (Gibco) and optionally 100 μg/ml penicillin/streptomycin (Gibco). Cells were cultured with high density and splitted 1:2 when required. The human induced pluripotent stem cell derived microglia line was treated with lipopolysaccharides (LPS, 1 μg/ml, Invivogen) and sialic acid forms with different chain length for 24 hours. Gene transcripts for tumor necrosis factor-α (TNF-alpha) were determined by quantitative RT-PCR and normalized to GAPDH. In detail, RNA isolation was performed using RNeasy Mini Kit (Qiagen) and transcription with the SuperScript First-Strand Synthesis System (Invitrogen). Quantitative RT-PCR with specific oligonucleotides (GAPDH: […] (SEQ ID NO: 1) and […] (SEQ ID NO: 2); TNFα: […] (SEQ ID NO: 3) and […] (SEQ ID NO: 4)) was performed using SYBR green PCR Master Mix with the Mastercycler epgradients S (Eppendorf). Results were normalized to GAPDH. Quantification using the delta-CT method was carried out.

[3] = test system: human macrophage cell line THP-1; assay: LPS-induced TNF-alpha gene transcription in human macrophages; conditions: THP-1, LPS 1 μg/ml, 24 hours; 0.15 μM and 0.5 μM; FIG. 5B
Protocol: The human monocyte line THP-1 (ATCC TIB-202) was cultured in RPMI medium with 10% FCS, 1% sodium pyruvate and 1% penicillin/streptomycin (100×) (all Gibco, Invitrogen) in 75 ml cell culture flasks (Sarstedt). For differentiation into tissue macrophages the line was cultured for 3 hours in normal cell culture medium containing 0.5 μM phorbol 12-myristate 13-acetate (Sigma) and afterwards in phorbol 12-myristate 13-acetate free medium for at least 24 hours.
FIG. 5B illustrates the effect of low molecular weight PSA (PSA-20) on the pro-inflammatory cytokine TNF-alpha. The human macrophage cell line THP-1 was treated with lipopolysaccharides (LPS, 1 μg/ml) and PSA-20 (different concentrations) for 24 hours. Gene transcripts for tumor necrosis factor-α a (TNFα) were determined by quantitative RT-PCR and normalized to GAPDH. In detail, RNA isolation was performed using RNeasy Mini Kit (Qiagen) and transcription with the SuperScript First-Strand Synthesis System (Invitrogen). Quantitative RT-PCR with specific oligonucleotides (GAPDH: […] (SEQ ID NO: 1) and […] (SEQ ID NO: 2); TNFα: […] (SEQ ID NO: 3) and […] (SEQ ID NO: 4)) was performed using SYBR green PCR Master Mix with the Mastercycler epgradients S (Eppendorf). Results were normalized to GAPDH. Quantification using the delta-CT method was carried out.

Q: For poly-(α(2→8)Neu5Ac)n [PSA-20], which “metabolic activity of the microglial cells (MTT, normalized to cell number)” value ([1]; 24 hours treatment, 0.15 μM, 0.5 μM and 1.5 μM, FIG. 2B) is on record?
A: Its value is “did not affect the metabolic activity”.

Q: And the “Intact viability of human microglia” value ([1]; summary of Example 3, MTT, 24 hours)?
A: The value was “Yes”.

Q: What about the “LPS-induced gene transcription of TNF-alpha” value ([2]; 0.15 μM, 0.5 μM and 1.5 μM, FIG. 3) of the same substance?
A: The value was “reduced”.

Q: What about the “Anti-inflammatory effect on TNF-alpha of LPS-activated human microglia” value ([2]; summary of Example 4) of the same substance?
A: Its value is “Yes”.

Q: And the “LPS-induced gene transcription of TNF-alpha” value [3]?
A: Its value is “reduced”.
